Read-outs that look alike come from different tables or passages of the source.
Tests used:
[1] = target: NMDA receptor; experiment: Radioligand binding: displacement of [3H]MK-801 from rat forebrain membranes; settings: for NMDA receptor binding / affinity: MK-801 binding to membranes
Source text: (§1) Evaluation of the therapeutic effects of the novel PRS-211 compounds has now been carried out in a series of experimental systems to support the utility of these drugs as neuroprotectants, anti-inflammatory agents and anti-oxidative agents. These effects have been evaluated both in vitro and in vivo, and have been corroborated utilizing the following systems: • (a) Binding to the NMDA receptor linked channel: Non competitive antagonists of NMDA, the primary example of which is the compound MK-801, bind to a site within the NMDA receptor channel thus preventing the activation of the receptor-channel complex and the consequent neurotoxicity. The ability of various compounds to compete with the binding of tritium labeled MK-801 to brain membranes is considered a measure of their potency as NMDA non-competitive antagonists. • (b) Inhibition of prostaglandin production: The inhibitory effect of the new derivatives of Dexanabinol on prostaglandin synthesis is evaluated in macrophage cell cultures following LPS exposure to induce the inflammatory response. These assays are an indication of the anti-inflammatory activity of the individual analogs. • (c) Inhibition of Tumor Necrosis Factor Alpha: Specific aspects of the inflammatory response cascade are mediated by the cytokine TNFα. Inhibition of TNFα production and/or inhibition of TNFα release by the new analogs are assayed in macrophage cell cultures activated with LPS. This serves as another indication of the general anti-inflammatory potential of the novel compounds. • (d) Nitric Oxide Assay: As one aspect of the anti-oxidative potential of the novel analogs they were tested for their ability to inhibit the enzyme nitric oxide synthase (NOS). This assay can also serve as another indication of the anti-inflammatory cascade, as well as the anti-oxidative mechanisms. • (e) Ear Edema model: The anti-inflammatory activity of the new analogs is screened using an ear edema model in mice. This test system utilizes Croton oil or Arachidonic acid as inflammation inducers. The ability of the test compounds to prevent or diminish the inflammatory response to these stimulants is indicative of their systemic anti-inflammatory capability. • (f) Improved clinical outcome after closed head injury in rats: Severe head injury is associated with high mortality and severe neurological impairment. Animals subjected to head trauma in a controlled fashion serve as models in which to test drugs of therapeutic potential. Test compounds can be evaluated both for improved clinical outcome and for reduction of edema induced by closed head injury. The ability of compounds to reduce the severity of neurological symptoms and to reduce brain edema is considered a measure of their potency in reducing brain damage. • (g) Transient Middle cerebral artery occlusion (MCAo): The middle cerebral artery is the cerebral blood vessel most susceptible to stroke in humans. In animals, coagulation, permanent ligation or permanent placement of an occluding thread in the artery produces a permanent focal stroke affecting the MCA territory. Transient ligation or occlusion results in transient focal stroke. Both transient and permanent focal strokes result in varying degrees of edema and infarction in the affected brain regions. The ability of compounds to reduce the volumes of edema and infarction is considered a measure of their potential as anti-stroke treatment. • (h) Optic Nerve Crush: Application of mechanical pressure to the rat optical nerve results in crush injury of the axons, which is accompanied by immediate changes in oxidative metabolism and delayed axonal death and blindness. […]

[2] = test system: ear edema model in mice; experiment: Ear edema model; format: in vivo; settings: Mus musculus, Croton oil (CO) as inducer, IP
Source text: as §1

[3] = test system: PGE2; experiment: Inhibition of prostaglandin synthesis (PGE2) in LPS-stimulated macrophage cell cultures; format: cell-based; settings: LPS-stimulated macrophages
Source text: as §1

[4] = test system: TNFα; experiment: Inhibition of TNFα in LPS-stimulated macrophage cell cultures (ELISA); format: cell-based; settings: LPS-stimulated macrophages
Source text: as §1

[5] = test system: Nitric Oxide Synthase (NOS); experiment: Inhibition of nitric oxide synthase (nitrite fluorimetric assay, LPS-stimulated macrophage cultures); format: cell-based; settings: LPS-stimulated macrophages
Source text: as §1

[6] = test system: transient middle cerebral artery occlusion in rats; experiment: Transient middle cerebral artery occlusion (MCAo), infarct size evaluation; format: in vivo; settings: for Mortality rate: 5 mg/kg IV at 2+0 hours
Source text: Experimental design. The design was a randomized one, performed in a masked fashion as to whether drug or vehicle was being given, and an attempt was made to generate approximately equal numbers of drug- and vehicle-treated animals.
• a. Male rats (8 /treatment group) 320-380 gr. (Harlan Israel). • b. Halothane (Rhone Poulenc France) • c. Pentobarbitone (Pental Veterinary, CTS Israel). • d. Poly - L - Lysine (Sigma, USA). • e. Silk suture material 3-0 and 4-0. • f. Nylon (Polyamid) suture material 3-0. Four cm pieces were cut and positioned in a solution of 1% Poly - L - Lysine for 1 minute and dried in an oven (60 ° C) for 60 minutes. The tip of each piece was rounded under a flame. • g. Saline (Teva Medical). • h. Blank cremophor ethanol cosolvent (Pharmos). • i. Dexanabinol in cremophor ethanol cosolvent 50 mg/ml. (Both Dexanabinol and its vehicle were diluted in saline prior to drug administration. • j. Analogs PRS-211,092, PRS-211,095, PRS-211,128 PRS-211,132 and PRS-211,220 in cremophor ethanol cosolvent, 50 mg/ml. • k. The analogs were diluted in saline prior to drug administration.
• a. Surgical details of the MCAo method used for testing dexanabinol analogs, are presented in Belayev, et al., (Belayev, Busto, Weizhao, and Ginsberg, Stroke 26:2313-2319, 1995) which is incorporated herein in its entirety by reference. • b. Two hours after the start of MCAO, the animals were reanesthetized with halothane, the neck wound was re-opened and the nylon thread pulled out of the Internal carotid artery (ICA). The skin wound was then closed with 3-0 silk suture material and the animals allowed to recover from the anesthesia. • c. Three sets of animals were tested. In the first test immediately (2+0 hours) before thread removal the animals were injected IV with either analogs PRS-211,095, PRS-211,128, PRS-211,132, or Dexanabinol (PRS-211,007) each at a dosage of 5 mg/kg. One group of animals was treated with 5ml/kg vehicle alone. In another group, the animals subjected to "sham" operation, the suture was passed into the ICA, as described above, but immediately withdrawn. In the second set dexanabinol, PRS-211,092, PRS-211,095 and PRS-211,220 were used, at 2+0 hours. In the third set dexanabinol, PRS-211,092, PRS-211,095 and PRS-211,220 were administered 1 hour after thread removal (2+1 hours). Laser Doppler Flow (LDF) determined the success of MCAo - a drop of more then 50% in cerebral blood flow was considered as a sign of successful MCAo. Although LDF was a helpful corroborative sign, clinical outcome remained the final inclusion/exclusion criterion, since, with the exception of the PRS-211,220 staircase study, LDF was introduced only after initiation of the study.
A detailed investigation of neurological performance was carried out on the first, third and the 7th day after the MCAo. Two parameters were examined: posture and the flexion reflex (based on Nokon and Chuang, NeuroReport 9, 1998: 2081-2084). Animals were scored according to their performance:
One week after the ischemic insult, animals were euthanized with pentobarbitone 100 mg/kg IP. The animals were perfused through the heart with heparinized 4% formaldehyde solution in PBS (pH 7.4). Brains were then removed, and kept in the same solution before preparation for histological evaluation of the brain infarct volume.

[7] = displacement of [3H]MK-801, rat forebrain membranes, read-out: NMDA BINDING IC50
[8] = [3H]MK-801 binding, text to Figure 2, read-out: mean IC50

| Structure (SMILES) | IC50 [1, 7] [µM] | ED50 [2] [µmol/kg] | inhibition at 10 µM [3] [%] | inhibition at 10 µM [4] [%] | inhibition at 10 µM [5] [%] | NMDA receptor binding / affinity [1] | Mortality rate [6] | IC50 [1, 8] [µM] | reduction of infarct size ([6]; IV, one week after the ischemic insult) [%] | function, reduction of mortality and brain morphometry [6] |
| --- | --- | --- | --- | --- | --- | --- | --- | --- | --- | --- |
| CCCCCCC(C)(C)c1cc(O)c2c(c1)OC(C)(C)[C@H]1CC=C(Cc3cccs3)C[C@H]21 [211,118-000] | 32 |  |  |  |  |  |  |  |  |  |
| CCCCCCC(C)(C)c1cc(O)c2c(c1)OC(C)(C)[C@H]1CC=C(CC#N)C[C@H]21 [211,006-000] | 8 | 104 | 41 | 46 | 19 |  |  |  |  |  |
| CCCCCCC(C)(C)c1cc(O)c2c(c1)OC(C)(C)[C@H]1CC=C(C[S+](C)[O-])C[C@H]21 (stereo partly drawn) [211,041-000] | 6 | 39 | 56 | 23 | 72 |  |  |  |  |  |
| CCCCCCC(C)(C)c1cc(O)c2c(c1)OC(C)(C)[C@H]1CC=C(CN3CC=CCC3)C[C@H]21 [211,145-000] | 13 |  | 63 | 15 | 60 |  |  |  |  |  |
| CCCCCCC(C)(C)c1cc(O)c2c(c1)OC(C)(C)[C@H]1CC=C(COCC(O)CO)C[C@H]21 (stereo partly drawn) [211,211-000] | 4.6 |  | 83 | 18 | 0 |  |  |  |  |  |
| CCCCCCC(C)(C)c1cc(O)c2c(c1)OC(C)(C)[C@H]1CC=C(CN3CCC(N4CCCC4)CC3)C[C@H]21 [211,253-000] | > 100 |  | 92 | 0 | 27 | do not exhibit substantial NMDA receptor binding |  |  |  |  |
| CCCCCCC(C)(C)c1cc(O)c2c(c1)OC(C)(C)[C@H]1CC=C(CN3CCCCC3)C[C@H]21 (stereo in doubt) [211,159-000] | > 20 |  | 87 | 33 | 27 |  |  |  |  |  |
| CCCCCCC(C)(C)c1cc(O)c2c(c1)OC(C)(C)[C@H]1CC=C(Cn3cncn3)C[C@H]21 [211,102-000] | 2.5 |  |  |  |  |  |  |  |  |  |
| CCCCCCC(C)(C)c1cc(O)c2c(c1)OC(C)(C)[C@H]1CC=C(CN3CCC(N4CCCCC4)CC3)C[C@H]21 (single isomer, unassigned) [211,257-000] | > 100 |  | 88 | 10 | 39 | do not exhibit substantial NMDA receptor binding |  |  |  |  |
| CCCCCCC(C)(C)c1cc(O)c2c(c1)OC(C)(C)[C@H]1CC=C(CN3CCOCC3)C[C@H]21 [211,132-000] | 4.5 | 70 | 61 | 21 | 40 |  | around 25% | 4.5 |  |  |
| CCCCCCC(C)(C)c1cc(O)c2c(c1)OC(C)(C)[C@H]1CC=C(CN3CC=CC3)C[C@H]21 [211,212-000] | 7.5 |  | 96 | 14 | 0 |  |  |  |  |  |
| CCCCCCC(C)(C)c1cc(O)c2c(c1)OC(C)(C)[C@H]1CC=C(Cn3cnnc3)C[C@H]21 [211,103-000] | 3 |  |  |  |  |  |  |  |  |  |
| CCCCCCC(C)(C)c1cc(O)c2c(c1)OC(C)(C)[C@H]1CC=C(CN3CCC(C)CC3)C[C@H]21 (single isomer, unassigned) [211,251-000] | > 100 |  | 91 | 0 | 37 | do not exhibit substantial NMDA receptor binding |  |  |  |  |
| CCCCCCC(C)(C)c1cc(O)c2c(c1)OC(C)(C)[C@H]1CC=C(CN3CCNC(C)C3)C[C@H]21 (stereo partly drawn) [211,134-000] | > 100 |  |  |  |  |  |  |  |  |  |
| CCCCCCC(C)(C)c1cc(O)c2c(c1)OC(C)(C)[C@H]1CC=C(CN3CCN=C3SC)C[C@H]21 [211,204-000] | 10 | 34 | 83 | 28 | 85 |  |  |  | 50 |  |
| CCCCCCC(C)(C)c1cc(O)c2c(c1)OC(C)(C)[C@H]1CC=C(CNC(C)=O)C[C@H]21 [211,044-000] | 6 |  | 24 | 0 |  |  |  |  |  |  |
| CCCCCCC(C)(C)c1cc(O)c2c(c1)OC(C)(C)[C@H]1CC=C(CN3CCNCC3)C[C@H]21 [211,133-000] | > 100 |  |  |  |  |  |  |  |  |  |
| CCCCCCC(C)(C)c1cc(O)c2c(c1)OC(C)(C)[C@H]1CC=C(Cc3ccccc3)C[C@H]21 [211,119-000] | 62 |  | 14 |  |  |  |  |  |  |  |
| CC(C)(C)c1cc(O)c2c(c1)OC(C)(C)[C@H]1CC=C(CO)C[C@H]21 [211,047-000] | 100 |  | 28 | 0 |  |  |  |  |  |  |
| CCCCCCC(C)(C)c1cc(O)c2c(c1)OC(C)(C)[C@H]1CC=C(CN3CCCC3)C[C@H]21 (stereo in doubt) [211,128-000] | > 20 | 23 | 84 | 48 | 27 | no detectable affinity | around 25% | > 20 |  | inactive |
| CCCCCCC(C)(C)c1cc(O)c2c(c1)OC(C)(C)[C@H]1CC=C(CN(Cc3ccccc3)c3ccccc3)C[C@H]21 [211,255-000] | > 100 |  | 94 | 0 | 7 | do not exhibit substantial NMDA receptor binding |  |  |  |  |

From EP1785417A2, “Novel non-psychotropic cannabinoids” (priority 2000, dated 2001)
